The values below come from US20250059169A1, “PYRAZOLE-1(2H)-PHTHALAZINONE COMPOUND AND APPLICATION THEREOF” (MEDSHINE DISCOVERY INC., priority 2021, published 2025).

pIC50: −log10 of the molar value.

One data set deals with HCT116 MTAP KO cells. The experiment in a line: In vitro proliferation assay of HCT116 MTAP KO cells. The format is cell-based. The settings on record: 10 days, 3D CellTiter-Glo. The protocol:
(§1) McCoy's 5A medium, penicillin/streptomycin antibiotics, purchased from Wisent; fetal bovine serum, purchased from Biosera. 3D CellTiter-Glo (chemiluminescent cell viability assay reagent), purchased from Promega. HCT116 WT cell line, purchased from Nanjing Cobioer Biosciences Co., Ltd. HCT116 MTAP KO cell line, purchased from Horizon Discovery. Envision multilabel plate reader (PerkinElmer).
(§2) HCT116 WT and MTAP KO cells were seeded into an ultra-low attachment 96-well U-bottom plate at a density of 80 μL cell suspension per well containing 1000 HCT116 cells. The cell plate was incubated overnight in a CO2 incubator.
(§3) The test compound was serially diluted 5-fold across eight concentrations using a pipette, ranging from 2 mM to 25.6 nM, and tested in duplicate. 78 μL of medium per well was added to an intermediate plate. Subsequently, 2 μL of the serially diluted compound per well was transferred to the corresponding wells of the intermediate plate and mixed well. […] An additional cell plate was prepared to read the signal value on the day of compound addition, which served as the […] for data analysis.
(§4) The cell plate was added with 100 μL of chemiluminescent cell viability assay reagent per well and incubated at room temperature for 10 minutes to stabilize the luminescent signal. A multilabel microplate reader was used for reading. […]
In general terms: In ATP-based viability assays light output follows the ATP content of the culture.

Another data set deals with HCT116 WT cells. The experiment in a line: In vitro proliferation assay of HCT116 WT cells. The format is cell-based. Conditions: 10 days, 3D CellTiter-Glo. As to the method:
as §1, §2, §3, §4

Data set [1] is described as follows: In vitro liver microsomal stability test, human. The settings on record: Human liver microsomes, 1 μM compound, 0.5 mg/mL. The format is in vitro ADME. As to the method: (§5) Liver microsomes: Human and animal microsomes were purchased from Corning or Xenotech and stored in a −80° C. freezer.
(§6) Reduced nicotinamide adenine dinucleotide phosphate (NADPH), supplier: Chem-Impex International, Cat. No.: 00616.
(§7) Stock solution: 10 mM DMSO solution
(§8) Preparation of working concentration: The stock solution was diluted to 100 µM using 100% acetonitrile (organic phase content: 99% acetonitrile, 1% DMSO).
(§9) Two 96-well incubation plates were prepared and named as T60 incubation plate and NCF60 incubation plate.
(§10) 445 μL of microsomal working solution (liver microsomal protein concentration of 0.56 mg/mL) was added to both the T60 incubation plate and the NCF60 incubation plate.
(§11) The two incubation plates were pre-incubated in a 37° C. water bath for approximately 10 minutes.
(§12) After pre-incubation, 5 μL of the test compound or control compound working solution was added to both the T60 incubation plate and the NCF60 incubation plate and mixed well. 50 μL of potassium phosphate buffer per well was added to the NCF60 incubation plate to initiate the reaction. 180 μL of termination solution (acetonitrile solution containing 200 ng/mL tolbutamide and 200 ng/mL labetalol) and 6 μL of NADPH regeneration system working solution were added to a TO termination plate. […]

Data set [2] can be described thus: Pharmacokinetic testing in CD-1 mice. The format is in vivo. As to the method: Experimental purpose: To test the pharmacokinetic properties of the compound of the present disclosure in CD-1 mice.
Experimental materials: CD-1 mice (female, 15 to 30 g, 6 to 9 weeks, Beijing Vital River Laboratory Animal Technology Co., Ltd.)
The pharmacokinetic characteristics of the compound in rodents were tested following intravenous injection and oral administration according to a standard protocol. In the experiment, the candidate compound was prepared as a clear solution for single intravenous injection and as a homogeneous suspension for single oral administration in mice. In the case of intravenous injection, the dose was 3 mg/kg, with the vehicle being 5% DMSO/10% Solutol/85% water. In the case of oral administration, the dose was 30 mg/kg, with the vehicle being 0.5% MC (4000 cps)/0.2% Tween-80. Whole blood samples were collected within 24 hours, centrifuged at 3000 g for 15 minutes at 4° C., and the supernatant was separated to obtain plasma samples. 20 times the volume of acetonitrile solution containing internal standard was added to precipitate the protein. The samples were vortexed for 10 minutes and centrifuged at 3220 g for 15 minutes at 4° C. The supernatant was transferred to a 96-well plate and centrifuged at 3220 g for 5 minutes at 4° C. The supernatant was then injected for LC-MS/MS analysis to quantify plasma concentration, and pharmacokinetic parameters were calculated.

The nature of data set [3]: In vitro liver microsomal stability test, rat. The class given is in vitro ADME. The settings on record: Rat liver microsomes, 1 μM compound, 0.5 mg/mL. As to the method:
as §5, §6, §7, §8, §9, §10, §11, §12
Background: Liver microsomes are vesicles of endoplasmic reticulum, rich in cytochrome P450 enzymes.

Data set [4] has as its system human large cell lung cancer LU99 subcutaneous xenograft tumor. Put plainly: In vivo efficacy test, LU99 subcutaneous xenograft tumor model. Further details: species or system BALB/c nude mice. The settings on record: for TGI: based on tumor volume on day 29. As to the method: To evaluate the tumor inhibitory effect of the compounds of the present disclosure on a human large cell lung cancer LU99 subcutaneous xenograft tumor model.
Female BALB/c nude mice were subcutaneously inoculated with the human large cell lung cancer LU99 cell line. After inoculation, the mice were randomly divided into groups based on body weight and tumor volume, with six animals per group, and were administered as described below.
Group 1 (vehicle group): When the tumor volume reached 207±9 mm^3 after inoculation, the mice were administered daily by gavage with the vehicle (5% DMSO/10% Solutol/85% double-distilled water) at a dose of 0.1 mL/10 g.
Group 2 (treatment group): When the tumor volume reached 207±10 mm^3 after inoculation, the mice were administered daily by gavage with the test compound (compound dissolved in 5% DMSO/10% Solutol/85% double-distilled water) at a dose of 12.5 mg/kg.
Group 3 (treatment group): When the tumor volume reached 207±10 mm^3 after inoculation, the mice were administered daily by gavage with the test compound (compound dissolved in 5% DMSO/10% Solutol/85% double-distilled water) at a dose of 25 mg/kg.
Group 4 (treatment group): When the tumor volume reached 207±14 mm^3 after inoculation, the mice were administered daily by gavage with the test compound (compound dissolved in 5% DMSO/10% Solutol/85% double-distilled water) at a dose of 50 mg/kg.
After the experimental grouping, the mice were weighed twice weekly, and the tumor diameters were measured using a vernier caliper. The tumor volume was calculated, and then the tumor growth inhibition (TGI) was calculated. On day 29 after experimental administration, the mice were euthanized and sampled. The calculation formulas are as follows:
Tumor volume=0.5×Length×Width^2
TGI (%)=[1−(Ti−T0)/(Ci−C0)]×100%, where Ti is the average tumor volume of a given administration group on a given day, T0 is the average tumor volume of the administration group at the start of administration, Ci is the average tumor volume of the control group on a given day (the same day as Ti), and C0 is the average tumor volume of the control group at the start of administration.

Data set [5] is described as follows: Pharmacokinetic testing in Beagles. The format is in vivo. As to the method:
Experimental purpose: To test the pharmacokinetic properties of the compound of the present disclosure in Beagles.
Experimental materials: Beagles (male, >6 months old, Beijing Marshall Biotechnology Co., Ltd.)
The pharmacokinetic characteristics of the compound in dogs were tested following intravenous injection and oral administration according to a standard protocol. In the experiment, the test compound was prepared as a clear solution for single intravenous injection and single oral administration in dogs. In the case of intravenous injection, the dose was 2 mg/kg, with the vehicle being 5% DMSO/10% Solutol/85% water. In the case of oral administration, the dose was 10 mg/kg, with the vehicle being 5% DMSO/10% Solutol/85% water. Whole blood samples were collected within 48 hours, centrifuged at 3000 g for 15 minutes at 4° C., and the supernatant was separated to obtain plasma samples. 20 times the volume of acetonitrile solution containing internal standard was added to precipitate the protein. The samples were vortexed for 10 minutes and centrifuged at 3220 g for 15 minutes at 4° C. The supernatant was transferred to a 96-well plate and centrifuged at 3220 g for 5 minutes at 4° C. The supernatant was then injected for LC-MS/MS analysis to quantify plasma concentration, and pharmacokinetic parameters were calculated.

Data set [6] is described as follows: In vitro liver microsomal stability test, dog. The class given is in vitro ADME. The settings on record: Dog liver microsomes, 1 μM compound, 0.5 mg/mL. As to the method: as §5, §6, §7, §8, §9, §10, §11, §12

What is called pIC50 is the negative decadic logarithm of the IC50, by convention in mol/L. Take `Cn1ncc(-c2ccc3c(=O)[nH]nc(CN)c3c2)c1-c1c(F)c(Cl)cc(OC2(C)CC2)c1C#N` (single isomer, unassigned) [Compound 1A]: the pIC50 with HCT116 MTAP KO cells is 8.10; in the data set with HCT116 WT cells it was less than 5.00.

Regarding `Cn1ncc(-c2ccc3c(=O)[nH]nc(CN)c3c2)c1-c1c(F)c(Cl)cc(OC2(C)CC2)c1C#N` (single isomer, unassigned) [Compound 3A], the negative logarithm of the IC50 (pIC50) with HCT116 MTAP KO cells is 8.13; in the data set with HCT116 WT cells, 5.33.

Broadly, the TGI is the reduction of tumour growth relative to the control group. High values mean much slowing of growth, low ones little slowing of growth. On to `[2H]C([2H])([2H])n1ncc(-c2ccc3c(=O)[nH]nc(CN)c3c2)c1-c1c(F)c(Cl)cc(OC2(C)CC2)c1C#N` [Compound 3A], for which the “Liver microsomal stability CLint” value in data set [1] was determined as 20.4 mL/min/kg; in data set [3], 53.6 mL/min/kg; in data set [6], 47.7 mL/min/kg. The “Clearance Cl” value in data set [2] (intravenous injection 3 mg/kg) is given as 30.0 mL/min/kg. For the same compound, the entries for the “Half-life T1/2” value in data set [2] (intravenous injection 3 mg/kg) and in data set [5] (intravenous injection 2 mg/kg) were 1.29 h and 5.90 h, respectively. The “Bioavailability F” value was 46.8% in data set [2] (oral 30 mg/kg) and 113% in data set [5] (oral 10 mg/kg). In data set [2] (oral 30 mg/kg), the “Concentration integral AUC0-last” value was determined as 16.059 µM·h. For the same compound, the Tumor volume in data set [4] (12.5 mg/kg daily by gavage, Day 0) was determined as 207 mm^3; in data set [4] (12.5 mg/kg daily by gavage, Day 4), 253 mm^3; in data set [4] (12.5 mg/kg daily by gavage, Day 8), 297 mm^3; in data set [4] (12.5 mg/kg daily by gavage, Day 11), 331 mm^3; in data set [4] (12.5 mg/kg daily by gavage, Day 15) it was 382 mm^3; in data set [4] (12.5 mg/kg daily by gavage, Day 18), 440 mm^3. Besides, the Tumor volume in data set [4] (12.5 mg/kg daily by gavage, Day 22) turned out to be 494 mm^3; in data set [4] (12.5 mg/kg daily by gavage, Day 25) it was 565 mm^3; in data set [4] (12.5 mg/kg daily by gavage, Day 29) it was 755 mm^3; in data set [4] (25 mg/kg daily by gavage, Day 0), 207 mm^3; in data set [4] (25 mg/kg daily by gavage, Day 4) it was 254 mm^3; in data set [4] (25 mg/kg daily by gavage, Day 8) it was 247 mm^3. The Tumor volume in data set [4] (25 mg/kg daily by gavage, Day 11) was 240 mm^3; in data set [4] (25 mg/kg daily by gavage, Day 15), 238 mm^3; in data set [4] (25 mg/kg daily by gavage, Day 18) it was 248 mm^3; in data set [4] (25 mg/kg daily by gavage, Day 22), 282 mm^3; in data set [4] (25 mg/kg daily by gavage, Day 25), 363 mm^3; in data set [4] (25 mg/kg daily by gavage, Day 29), 491 mm^3. The Tumor volume in data set [4] (50 mg/kg daily by gavage, Day 0) is listed as 207 mm^3; in data set [4] (50 mg/kg daily by gavage, Day 4), 239 mm^3; in data set [4] (50 mg/kg daily by gavage, Day 8), 238 mm^3; in data set [4] (50 mg/kg daily by gavage, Day 11) it was 209 mm^3; in data set [4] (50 mg/kg daily by gavage, Day 15) it was 206 mm^3; in data set [4] (50 mg/kg daily by gavage, Day 18), 193 mm^3. For the same compound, the Tumor volume in data set [4] (50 mg/kg daily by gavage, Day 22) is reported as 226 mm^3; in data set [4] (50 mg/kg daily by gavage, Day 25), 273 mm^3; in data set [4] (50 mg/kg daily by gavage, Day 29), 412 mm^3. In addition, the TGI came out at 66% in data set [4] (12.5 mg/kg daily by gavage), 83% in data set [4] (25 mg/kg daily by gavage) and 87% in data set [4] (50 mg/kg daily by gavage). The Clearance in data set [5] (intravenous injection 2 mg/kg) is reported as 4.29 mL/min/kg. Besides, the “Plasma concentration integral AUC0-last” value in data set [5] (oral 10 mg/kg) worked out at 91.502 µM·h.
